Results as given in US20260234159A1, “SMALL MOLECULE TREATMENT OF FATTY LIVER DISEASE AND HCC” (SCANDIEDGE THERAPEUTICS AB, priority 2023, published 2026).

Assays:
[1] = In vivo biosafety study in rats: histopathological and immunohistochemical examination; parameters: species or system Sprague Dawley male rats; conditions: 30 mg/kg, seven days
Method: In vivo biosafety studies. Healthy Sprague Dawley male rats (12 weeks old, 250-280 g) were obtained from Atatürk University Experimental Research Center ([…] Turkey) and housed under standard environmental conditions (temperature 20° C.-25° C., humidity 50±20% and 12-hour light/dark diurnal cycle). Food and water were available ad libitum. Rats were randomly separated into one control group and two experimental groups (30 mg/kg/day BX-912 or JNK-IN-5A, n=5). […] The control group were received the same amount of vehicle solution only. After 7 days, rats were anaesthetized, and blood samples were collected from the abdominal aorta for biochemical and haematological analysis. The plasma was separated and stored at -80° C. for further analysis. Major organs such as heart, kidney, liver, muscle, adipose, intestine (duodenum, ileum, jejunum), pancreas, colon, and stomach were collected from all the animals for further analysis. Selected organs were fixed in 10% neutral buffered formalin for histopathological examination. Histopathological examination. […] Immunohistochemical examination. […] Slides were counter stained with hematoxylin.

[2] = system: polychromatic erythrocytes; experiment: Micronucleus frequencies (MNPCEs) as genotoxicity endpoint; format: in vivo, Sprague Dawley male rats; conditions: 30 mg/kg, seven days
Method: In addition to sampling for biochemical and haematological analysis, one drop of blood samples was obtained from the animals for evaluating micronucleus frequencies as genotoxicity endpoint at the end of the experiments. Three different smears of each rat were prepared using pre-coded and cold slides, then the slides air-dried at room temperature, and fixed in ethanol for 10 min, and stained with Giemsa. […] The incidence of MN-PCEs was determined by scoring a total of 3000 PCE per animal and results were expressed as % MN [12].

PKL = experiment: Western blot, PKL; format: cell-based, human; conditions: 10 μM, 2 days
Method: (§1) HepG2 cells were seeded into a 6-well plate at 400,000 cells per well. After treatment with 10 μM of JNK-IN-5A and its derivatives for two days, lysates were harvested with CelLytic M (C2978, Sigma-Aldrich). 20 μg lysate was prepared with 2× Laemmli Sample Buffer (1610737, Biorad). SDS PAGE were performed using Mini-PROTEAN® TGX™ Precast Gels (Bio-Rad) and transferred using Trans-Blot® Turbo™ Transfer System (Bio-Rad). Primary antibody, PARP (95425, Cell signalling), Caspase 3 (ab32042, abcam), Bcl-2 (ab182858), STAT1 (HPA000982, Merk), PKL (06653, Sigma), PKM (4053S, Cell signalling), GAPDH (ab8245, abcam), P53 (ab32389, abcam), p21 (ab109199, abcam), p-S349 p62 (ab211324, abcam), p62 (ab109012, abcam), c-Myc (ab32072, abcam), GPX4 (ab125066, abcam), MMP9 (MA5-32705, Invitrogen), β-actin (ab8227, abcam), and α-tubulin (ab7291, abcam) were blotted overnight and Goat Anti-Rabbit HRP (ab205718) and goat anti-mouse IgG-HRP (sc2005, Santa Cruz Biotechnology, Inc.) were blotted for secondary antibody for one hour. ImageQuantTMLAS 500 (29-0050-63, GE) was used to detect protein bands.

Caspase 3 = experiment: Western blot, active caspase 3; format: cell-based, human; conditions: 10 μM, 2 days
Method: as §1

p62 (SQSTM1) = experiment: Western blot, p62 and p-S349 p62; format: cell-based, human; conditions: 10 μM, 2 days
Method: as §1

HepG2 cells [3] = experiment: MTT cell viability after one week steatosis (ranking of target molecules); format: cell-based, human
Summary of the method: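 HepG2 cells, 60,000 per well, kept one week in steatosis medium (high-glucose DMEM, 10 μg/ml insulin, 10 μM T0901317) with 10 μM compound. Medium changed at day 0, 3 and 5. Viability measured by MTT.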

HepG2 cells [4] = experiment: Cellular ROS assay (DCFDA); format: cell-based, human; conditions: 10 μM, one day
Method: HepG2 cells were seeded into a 6-well plate at 400,000 cells per well. After treatment with the compounds at desired concentration and time, TMRE (ab113852, abcam), Autophagy (ab139484, abcam), ROS (ab113851, abcam), and Lipid peroxidation (ab243377, abcam) assay were performed according to manufacturer's instructions. Fluorescence images were taken using ZOE™ Fluorescent Cell Imager (Biorad) and ROI of fluorescence intensity was measured and calculated by Image J. For microplate reader florescence assay, 40,000 of HepG2 cells were seeded into a 96-well plate and triplicated. GFP (Ex480 nm, Em530 nm) and RFP (Ex549 nm, Em574 nm) were measured using a microplate reader (Hidex Sense Meta Plus).

N#Cc1c(NC(=O)c2cccc3ccccc23)sc2c1CCCC2 [JNK-IN-5A, N-(3-cyano-4,5,6,7-tetrahydrobenzo[b]thiophen-2-yl)-1-naphthamide]
histological structures of major organs [1]: normal histological structures | side effects on the rats [1]: no side effects | 8-OH-dG expression in liver tissues ([1]; IHC): negative | genotoxic potential [2]: non-genotoxic | frequencies of MNPCEs compared to Ctrl animals ([2]; p>0.05): not statistically different | PKL expression (PKL): notably decreased

COc1ccc(C(=O)Nc2sc3c(c2C#N)CCCCC3)cc1OC [PKL-A135, N-(3-cyano-5,6,7,8-tetrahydro-4H-cyclohepta[b]thiophen-2-yl)-3,4-dimethoxy-benzamide]
active caspase 3 levels (Caspase 3): 11.85 times | levels of p62 and P-S349 p62 (p62 (SQSTM1)): significantly elevated

N#Cc1c(NC(=O)c2cccc3ccccc23)sc2c1CCN(C(=O)Nc1ccccc1OC(F)(F)F)C2 [PKL-A159]
cell viability of HepG2 (HepG2 cells [3]): exceptionally low cell viability

N#Cc1c(NC(=O)c2cccc3ccccc23)sc2c1CCN(CC(=O)Nc1cccc(Br)c1)C2 [PKL-B171]
active caspase 3 levels (Caspase 3): 14.66 times | cellular ROS (HepG2 cells [4]): significantly increased
